Converted amounts (≈) assume the structure as drawn.
What was measured:
Type in all cases: functional
[1] = tested on: Mycobacterium tuberculosis; test: Antimycobacterial activity against multidrug-resistant Mycobacterium tuberculosis H37Rv assessed as inhibition of bacterial growth by alamar blue assay
[2] = tested on: Mycobacterium tuberculosis; test: Antimycobacterial activity against extensively-resistant Mycobacterium tuberculosis H37Rv assessed as inhibition of bacterial growth by alamar blue assay
[3] = tested on: Mycobacterium tuberculosis; test: Antimycobacterial activity against isoniazid resistant Mycobacterium tuberculosis clinical isolate incubated for 7 days by resazurin microtitre assay; conditions: 168 h, time 7 day
[4] = tested on: Mycobacterium tuberculosis; test: Antimycobacterial activity against isoniazid, rifampicin, ethambutol, pyrazinamide, capreomycin, and ethionamide resistant Mycobacterium tuberculosis clinical isolate incubated for 7 days by resazurin microtitre assay; conditions: 168 h, time 7 day
[5] = tested on: Mycobacterium tuberculosis; test: Antimycobacterial activity against isoniazid, rifampicin, ethambutol, pyrazinamide, streptomycin, capreomycin, amikacin, kanamycin, ofloxacin, and ethionamide resistant Mycobacterium tuberculosis clinical isolate incubated for 7 days by resazurin microtitre assay; conditions: 168 h, time 7 day
[6] = tested on: Mycobacterium tuberculosis; test: Antitubercular activity against multidrug resistant Mycobacterium tuberculosis clinical isolate 1 by resazurin microtitre assay
[7] = tested on: Mycobacterium tuberculosis; test: Antitubercular activity against multidrug resistant Mycobacterium tuberculosis clinical isolate 2 by resazurin microtitre assay
[8] = tested on: Mycobacterium tuberculosis; test: Antitubercular activity against multidrug resistant Mycobacterium tuberculosis clinical isolate 3 by resazurin microtitre assay
[9] = tested on: Mycobacterium tuberculosis; test: Antitubercular activity against multidrug resistant Mycobacterium tuberculosis clinical isolate 4 by resazurin microtitre assay
[10] = tested on: Mycobacterium tuberculosis; test: Antitubercular activity against multidrug resistant Mycobacterium tuberculosis clinical isolate 5 by resazurin microtitre assay
[11] = tested on: Mycobacterium tuberculosis; test: Antitubercular activity against multidrug resistant Mycobacterium tuberculosis clinical isolate 6 by resazurin microtitre assay
[12] = tested on: Mycobacterium tuberculosis; test: Antitubercular activity against multidrug resistant Mycobacterium tuberculosis clinical isolate 7 by resazurin microtitre assay
[13] = tested on: Mycobacterium tuberculosis; test: Antitubercular activity against multidrug resistant Mycobacterium tuberculosis clinical isolate 8 by resazurin microtitre assay
[14] = tested on: Mycobacterium tuberculosis; test: Antitubercular activity against multidrug resistant Mycobacterium tuberculosis clinical isolate 9 by resazurin microtitre assay
[15] = tested on: Mycobacterium tuberculosis; test: Antitubercular activity against multidrug resistant Mycobacterium tuberculosis clinical isolate 10 by resazurin microtitre assay
[16] = tested on: Mycobacterium tuberculosis; test: Antitubercular activity against multidrug resistant Mycobacterium tuberculosis clinical isolate 11 by resazurin microtitre assay
[17] = tested on: Mycobacterium tuberculosis; test: Antitubercular activity against extensively drug resistant Mycobacterium tuberculosis KMRC 0 0203-0 0197 by resazurin microtitre assay
[18] = tested on: Mycobacterium tuberculosis; test: Antitubercular activity against extensively drug resistant Mycobacterium tuberculosis clinical isolate 1 by resazurin microtitre assay
[19] = tested on: Mycobacterium tuberculosis; test: Antitubercular activity against extensively drug resistant Mycobacterium tuberculosis clinical isolate 2 by resazurin microtitre assay
[20] = tested on: Mycobacterium tuberculosis; test: Antitubercular activity against extensively drug resistant Mycobacterium tuberculosis clinical isolate 3 by resazurin microtitre assay
[21] = tested on: Mycobacterium tuberculosis; test: Antitubercular activity against extensively drug resistant Mycobacterium tuberculosis clinical isolate 4 by resazurin microtitre assay
[22] = tested on: Mycobacterium tuberculosis; test: Antitubercular activity against extensively drug resistant Mycobacterium tuberculosis clinical isolate 5 by resazurin microtitre assay
[23] = tested on: Mycobacterium tuberculosis; test: Antitubercular activity against extensively drug resistant Mycobacterium tuberculosis clinical isolate 6 by resazurin microtitre assay
[24] = tested on: Mycobacterium tuberculosis; test: Antitubercular activity against extensively drug resistant Mycobacterium tuberculosis clinical isolate 7 by resazurin microtitre assay
[25] = tested on: Mycobacterium tuberculosis; test: Antitubercular activity against extensively drug resistant Mycobacterium tuberculosis clinical isolate 8 by resazurin microtitre assay
[26] = tested on: Mycobacterium tuberculosis; test: Antitubercular activity against extensively drug resistant Mycobacterium tuberculosis clinical isolate 9 by resazurin microtitre assay
[27] = tested on: Mycobacterium tuberculosis; test: Antitubercular activity against extensively drug resistant Mycobacterium tuberculosis clinical isolate 10 by resazurin microtitre assay
[28] = tested on: Mycobacterium tuberculosis; test: Antitubercular activity against extensively drug resistant Mycobacterium tuberculosis clinical isolate 11 by resazurin microtitre assay
[29] = tested on: Mycobacterium tuberculosis; test: Antimycobacterial activity against isoniazid, streptomycin, ethambutol and ethionamide resistant Mycobacterium tuberculosis clinical isolate A
[30] = tested on: Mycobacterium tuberculosis; test: Antimycobacterial activity against isoniazid and ethionamide resistant Mycobacterium tuberculosis clinical isolate B
[31] = tested on: Mycobacterium tuberculosis; test: Antimycobacterial activity against isoniazid and ethionamide resistant Mycobacterium tuberculosis clinical isolate E
[32] = tested on: Mycobacterium tuberculosis; test: Antimycobacterial activity against isoniazid, streptomycin and ethionamide resistant Mycobacterium tuberculosis clinical isolate F
[33] = tested on: Mycobacterium tuberculosis; test: Antimycobacterial activity against isoniazid, streptomycin, rifampicin, ethambutol and ethionamide resistant Mycobacterium tuberculosis clinical isolate G
[34] = tested on: Mycobacterium tuberculosis; test: Antimycobacterial activity against isoniazid, streptomycin, rifampicin, ethambutol, ethionamide and ofloxacin resistant Mycobacterium tuberculosis clinical isolate H
[35] = tested on: Mycobacterium tuberculosis; test: Antimycobacterial activity against multidrug resistant Mycobacterium tuberculosis H37Rv
[36] = tested on: Mycobacterium tuberculosis; test: Antimycobacterial activity against extensively drug resistant Mycobacterium tuberculosis H37Rv
[37] = tested on: Mycobacterium tuberculosis; test: Antimycobacterial activity against isoniazid, streptomycin, and rifampicin resistant Mycobacterium tuberculosis clinical isolate C

Structure (SMILES)	MIC [6]	MIC [7]	MIC [8]	MIC [9]	MIC [10]	MIC [11]	MIC [12]	MIC [13]	MIC [14]	MIC [15]	MIC [16]	MIC [17]	MIC [18]	MIC [19]	MIC [20]	MIC [21]	MIC [22]	MIC [23]	MIC [24]	MIC [25]	also measured
COc1ccccc1NC(=O)c1c(Nc2cccc(C)c2)nn2c(O)cc(C)nc12	–	–	–	–	–	–	–	–	–	–	–	–	–	–	–	–	–	–	–	–	MIC [1]: 6.25 µg/mL (≈ 15.5 µM); MIC [2]: 12.5 µg/mL (≈ 31 µM)
CC(=O)N1/C(=C/c2ccc(Br)cc2)C(=O)c2ccccc21	–	–	–	–	–	–	–	–	–	–	–	–	–	–	–	–	–	–	–	–	MIC [3]: 15.2 µM (≈ 5.2 µg/mL); MIC [4]: 9.15 µM (≈ 3.13 µg/mL); MIC [5]: 15.2 µM (≈ 5.2 µg/mL)
CC(=O)N1/C(=C/c2ccc(-c3ccc(Cl)cc3)cc2)C(=O)c2ccccc21	–	–	–	–	–	–	–	–	–	–	–	–	–	–	–	–	–	–	–	–	MIC [3]: 8.37 µM (≈ 3.13 µg/mL); MIC [4]: 10.4 µM (≈ 3.89 µg/mL); MIC [5]: 8.37 µM (≈ 3.13 µg/mL)
Cc1cc(O)n2nc(Nc3ccc(F)c(F)c3)c(C(=O)Nc3ccc(F)cc3)c2n1	–	–	–	–	–	–	–	–	–	–	–	–	–	–	–	–	–	–	–	–	MIC [1]: 3.12 µg/mL (≈ 7.55 µM); MIC [2]: 25 µg/mL (≈ 60.5 µM)
CC[C@@H](CO)NCCN[C@@H](CC)CO [ETHAMBUTOL]	6.25 µg/mL (≈ 30.6 µM)	6.25 µg/mL (≈ 30.6 µM)	3.13 µg/mL (≈ 15.3 µM)	6.25 µg/mL (≈ 30.6 µM)	6.25 µg/mL (≈ 30.6 µM)	6.25 µg/mL (≈ 30.6 µM)	6.25 µg/mL (≈ 30.6 µM)	6.25 µg/mL (≈ 30.6 µM)	3.13 µg/mL (≈ 15.3 µM)	0.78 µg/mL (≈ 3.82 µM)	6.25 µg/mL (≈ 30.6 µM)	6.25 µg/mL (≈ 30.6 µM)	6.25 µg/mL (≈ 30.6 µM)	6.25 µg/mL (≈ 30.6 µM)	6.25 µg/mL (≈ 30.6 µM)	6.25 µg/mL (≈ 30.6 µM)	6.25 µg/mL (≈ 30.6 µM)	6.25 µg/mL (≈ 30.6 µM)	12.5 µg/mL (≈ 61.2 µM)	6.25 µg/mL (≈ 30.6 µM)	MIC [26]: 6.25 µg/mL (≈ 30.6 µM); MIC [27]: 6.25 µg/mL (≈ 30.6 µM); MIC [28]: 6.25 µg/mL (≈ 30.6 µM)
CCc1cc(C(N)=S)ccn1 [ETHIONAMIDE]	–	–	–	–	–	–	–	–	–	–	–	–	–	–	–	–	–	–	–	–	MIC [29]: 114 µg/mL (≈ 686 µM); MIC [30]: > 114 µg/mL; MIC [31]: > 80 µg/mL; MIC [32]: > 80 µg/mL; MIC [33]: > 114 µg/mL; MIC [34]: 114 µg/mL (≈ 686 µM)
NNC(=O)c1ccncc1 [ISONIAZID]	12.5 µg/mL (≈ 91.1 µM)	12.5 µg/mL (≈ 91.1 µM)	3.13 µg/mL (≈ 22.8 µM)	25 µg/mL (≈ 182 µM)	12.5 µg/mL (≈ 91.1 µM)	25 µg/mL (≈ 182 µM)	50 µg/mL (≈ 365 µM)	12.5 µg/mL (≈ 91.1 µM)	25 µg/mL (≈ 182 µM)	3.13 µg/mL (≈ 22.8 µM)	12.5 µg/mL (≈ 91.1 µM)	25 µg/mL (≈ 182 µM)	12.5 µg/mL (≈ 91.1 µM)	3.13 µg/mL (≈ 22.8 µM)	3.13 µg/mL (≈ 22.8 µM)	12.5 µg/mL (≈ 91.1 µM)	12.5 µg/mL (≈ 91.1 µM)	12.5 µg/mL (≈ 91.1 µM)	6.25 µg/mL (≈ 45.6 µM)	12.5 µg/mL (≈ 91.1 µM)	MIC [1]: 6.25 µg/mL (≈ 45.6 µM); MIC [2]: 50 µg/mL (≈ 365 µM); MIC [26]: 50 µg/mL (≈ 365 µM); MIC [27]: > 200 µg/mL; MIC [28]: 6.25 µg/mL (≈ 45.6 µM); MIC [35]: 6.25 µg/mL (≈ 45.6 µM); MIC [36]: 50 µg/mL (≈ 365 µM)
NC(=O)c1cnccn1 [PYRAZINAMIDE]	> 200 µg/mL	> 200 µg/mL	> 200 µg/mL	> 200 µg/mL	> 200 µg/mL	> 200 µg/mL	> 200 µg/mL	> 200 µg/mL	> 200 µg/mL	> 200 µg/mL	> 200 µg/mL	> 200 µg/mL	> 200 µg/mL	> 200 µg/mL	> 200 µg/mL	> 200 µg/mL	> 200 µg/mL	> 200 µg/mL	> 200 µg/mL	> 200 µg/mL	MIC [26]: > 200 µg/mL; MIC [27]: > 200 µg/mL; MIC [28]: > 200 µg/mL
CO[C@H]1/C=C/O[C@@]2(C)Oc3c(C)c(O)c4c(O)c(c(/C=N/N5CCN(C)CC5)c(O)c4c3C2=O)NC(=O)/C(C)=C\C=C\[C@H](C)[C@H](O)[C@@H](C)[C@@H](O)[C@@H](C)[C@H](OC(C)=O)[C@@H]1C [RIFAMPIN]	> 200 µg/mL	> 200 µg/mL	> 200 µg/mL	> 200 µg/mL	3.13 µg/mL (≈ 3.8 µM)	> 200 µg/mL	> 200 µg/mL	> 200 µg/mL	> 200 µg/mL	3.13 µg/mL (≈ 3.8 µM)	3.13 µg/mL (≈ 3.8 µM)	100 µg/mL (≈ 122 µM)	> 200 µg/mL	> 200 µg/mL	> 200 µg/mL	6.25 µg/mL (≈ 7.59 µM)	> 200 µg/mL	100 µg/mL (≈ 122 µM)	> 200 µg/mL	> 200 µg/mL	MIC [3]: 0.377 µM (≈ 0.31 µg/mL); MIC [4]: > 12.2 µM; MIC [5]: > 12.2 µM; MIC [26]: > 200 µg/mL; MIC [27]: 6.25 µg/mL (≈ 7.59 µM); MIC [28]: > 200 µg/mL
CN[C@@H]1[C@H](O[C@H]2[C@H](O[C@H]3[C@H](O)[C@@H](O)[C@H](N=C(N)N)[C@@H](O)[C@@H]3N=C(N)N)O[C@@H](C)[C@]2(O)C=O)O[C@@H](CO)[C@H](O)[C@H]1O [STREPTOMYCIN]	100 µg/mL (≈ 172 µM)	1.56 µg/mL (≈ 2.68 µM)	0.39 µg/mL (≈ 0.671 µM)	0.78 µg/mL (≈ 1.34 µM)	3.13 µg/mL (≈ 5.38 µM)	25 µg/mL (≈ 43 µM)	200 µg/mL (≈ 344 µM)	3.13 µg/mL (≈ 5.38 µM)	25 µg/mL (≈ 43 µM)	> 200 µg/mL	3.13 µg/mL (≈ 5.38 µM)	0.78 µg/mL (≈ 1.34 µM)	0.78 µg/mL (≈ 1.34 µM)	50 µg/mL (≈ 86 µM)	> 200 µg/mL	0.78 µg/mL (≈ 1.34 µM)	50 µg/mL (≈ 86 µM)	50 µg/mL (≈ 86 µM)	0.78 µg/mL (≈ 1.34 µM)	> 200 µg/mL	MIC [29]: > 64 µg/mL; MIC [30]: 8 µg/mL (≈ 13.8 µM); MIC [37]: 32 µg/mL (≈ 55 µM); MIC [31]: 16 µg/mL (≈ 27.5 µM); MIC [32]: > 16 µg/mL; MIC [33]: > 64 µg/mL; MIC [34]: > 64 µg/mL; MIC [26]: 200 µg/mL (≈ 344 µM); MIC [27]: < 0.09 µg/mL; MIC [28]: 200 µg/mL (≈ 344 µM)

Source: ChEMBL document CHEMBL5244273, “Tuberculosis: An Overview of the Immunogenic Response, Disease Progression, and Medicinal Chemistry Efforts in the Last Decade toward the Development of Potential Drugs for Extensively Drug-Resistant Tuberculosis Strains” (J Med Chem, 2021)
